Measurements reported in patent US20040082605A1, “Use” (priority 2001, published 2004).

Tested on: gastric (corpus) ulcers induced by indomethacin
Assay: Indomethacin induced gastric ulcer in rats, stomach examined macroscopically
Type: in vivo
Conditions: male rats; for Median number of gastric (corpus) ulcers induced by indomethacin: Ulcer furrows / Median number of gastric (corpus) ulcers induced by indomethacin: Pinhead ulcers: stomach removed 5 h after indomethacin; for Median number of gastric (corpus) ulcers induced by indomethacin: Ulcer furrows: furrows >3 mm; for Median number of gastric (corpus) ulcers induced by indomethacin: Pinhead ulcers: pinhead = diameter 3 mm or less; for Effect against gastric ulcers induced by indomethacin: oral dosing 1 h before indomethacin 20 mg/kg orally, result in words
Description: Groups of […] male rats were given oral doses of vehicle, 2,3-dimethyl-8-(2-ethyl-6-methylbenzylamino)-imidazo[1,2-a]pyridine-6-carboxamide(0.3, 1, 3 and 10 μmol/kg) or ranitidine (10 μmol/kg). Indomethacin 20 mg/kg, orally) was given 1 h after dosing. Stomach was removed 5 h after indomethacin and examined macroscopically Indomethacin induced ulcers in the corpus only, rumen and anthrum were unaffected. Ulcers in the corpus were classified as pinhead (diameter 3 mm or less) or furrows (>3 mm).

[1] = oral dose 0.3 μmol/kg 1 h before indomethacin 20 mg/kg orally
[2] = oral dose 1 μmol/kg 1 h before indomethacin 20 mg/kg orally
[3] = oral dose 3 μmol/kg 1 h before indomethacin 20 mg/kg orally
[4] = oral dose 10 μmol/kg 1 h before indomethacin 20 mg/kg orally
[5] = oral doses 0.3, 1, 3 and 10 μmol/kg

SMILES | Median number of gastric (corpus) ulcers induced by indomethacin: Ulcer furrows [1] | Median number of gastric (corpus) ulcers induced by indomethacin: Pinhead ulcers [1] | Median number of gastric (corpus) ulcers induced by indomethacin: Ulcer furrows [2] | Median number of gastric (corpus) ulcers induced by indomethacin: Pinhead ulcers [2] | Median number of gastric (corpus) ulcers induced by indomethacin: Ulcer furrows [3] | Median number of gastric (corpus) ulcers induced by indomethacin: Pinhead ulcers [3] | Median number of gastric (corpus) ulcers induced by indomethacin: Ulcer furrows [4] | Median number of gastric (corpus) ulcers induced by indomethacin: Pinhead ulcers [4] | Dose at which the decrease in pinhead ulcers and ulcer furrows was maximal [5] [µmol/kg] | Dose from which the decrease in pinhead ulcers and ulcer furrows was statistically significant [5] [µmol/kg] | Effect against gastric ulcers induced by indomethacin
CCc1cccc(C)c1CNc1cc(C(N)=O)cn2c(C)c(C)nc12 [2,3-dimethyl-8-(2-ethyl-6-methylbenzylamino)-imidazo[1,2-a]pyridine-6-carboxamide] | 8 | 5 | 9 | 5 | 1 | 2 | 0 | 0 | 10 | 3 | protective effect
CNC(=C[N+](=O)[O-])NCCSCc1ccc(CN(C)C)o1 [Ranitidine, ranitidine, reference compound] |  |  |  |  |  |  | 11 | 7 |  |  | no effect
